This is an account of results in patent US20140335251A1, “ANTIFUNGAL FLAVORING COMPOSITIONS” (FIRMENICH SA, priority 2011, published 2014).

Holding throughout (format): cell-based
One test has as its system each of the tested fungi. The test is described as follows: Growth inhibition, summary over all tested strains. Conditions: even at 75 ppm; strains of Tables 3-4 or 9-10. The protocol: (§1) A 105 g/L solution of sucrose in water at pH 5±0.2 was prepared. The sucrose solution was autoclaved at 121° C. for 15 minutes and the pH was re-checked to ensure it remained within the range.
(§2) Test samples were then prepared in microtiter plates. An amount of 100 μL of sucrose solution prepared above was mixed with an inoculum of 20 μL of one fungal strain, so as to achieve a microbial level comprised between 10^2 and 10^3 cfu/mL.
(§3) Composition A was then added to the microtiter plate. Dilutions were prepared in the microtiter plate for each mixture of sucrose solution and inoculum to afford final concentrations of 75 ppm and 125 ppm of Composition A. One well for each mixture of sucrose solution and inoculum was kept free of Composition A, to serve as a control.
(§4) The microtiter plates were then stored in a standard 25° C. incubator under aerobic conditions.
(§5) The optical density (OD) of each sample was measured after 21 days of incubation using a Bio-Tek Synergy™ HT Multi-Mode Microplate Reader (from Labtech International, UK). The wavelength was set to 380 nm for yeast strains and to 500 nm for mould strains.
(§6) All tests were done in triplicate to ensure statistical relevance of the results obtained.
2-Methylhexanoic acid, geranic acid and sorbic acid were separately tested for their antifungal properties using the method described in Example 1 for evaluation of Composition A, except that dilutions were prepared in the microtiter plate for each mixture of sucrose solution and inoculum to afford final concentrations of 25 ppm, 50 ppm and 75 ppm of the tested ingredient.
Composition B was then added to the microtiter plate.

Test [1] relates to Zygosaccharomyces bailii (DSM 70492). The test is described as follows: Growth inhibition in sucrose solution pH 5, OD after 21 days. The following applies: for Antifungal activity: pH 5, 21 days at 25° C., OD 380 nm. From the text:
The term “effective” when used to describe the capacity of a composition to inhibit growth of a yeast or mould strain is defined as the ability of such composition to inhibit growth of the strain in a growth medium consisting of a 105 g/L sucrose solution with an initial inoculum of 10^2-10^3 cfu/mL of such yeast or mould strain, so that the average optical density of the growth medium, as measured at 380 nm for yeast strains and at 500 nm for mould strains, is maintained below 0.2 after 21 days of culture at 25° C. under aerobic conditions. The growth medium of which the optical density is measured consists of the growth medium as it is at the end of the 21 days growth period. It therefore consists of the growth medium (sucrose solution at 105 g/L), together with the organisms which were able to grow during the 21 days culture period and the composition of the invention. For the purposes of the present invention, growth inhibition activity of a given compound against one of the above mentioned strains is measured as follows: A 105 g/L solution of sucrose in water is prepared. Preferably, the sucrose solution is at pH 3±0.2 or at pH 5±0.2, in which case the sucrose solution is more preferably autoclaved at 121° C. for 15 minutes and the pH is re-checked to ensure it remains within the required range. Test samples are prepared in a microtiter plate comprising 100 μL of one of the sucrose solutions prepared above, together with an initial inoculum of the fungal strain of which growth is intended to be inhibited, so as to achieve a microbial level comprised between 10^2 and 10^3 cfu/mL. The composition of which the antifungal activity is intended to be evaluated is then added to the microtiter plate. […] The microtiter plates are then stored in a standard 25° C. incubator under aerobic conditions. The optical density (OD) of each sample is measured just after addition of the composition (control) and after 21 days of incubation. The OD is measured at 380 nm for yeast strains and at 500 nm for mould strains. All tests are done in triplicate to ensure statistical relevance of the results obtained. Growth inhibition of a particular strain by an ingredient at a particular concentration is given if the OD measured after 21 days of culture in these conditions is below 0.2. A 105 g/L solution of sucrose in water at pH 5±0.2 was prepared. The sucrose solution was autoclaved at 121° C. for 15 minutes and the pH was re-checked to ensure it remained within the range. Test samples were then prepared in microtiter plates. […] Composition A was then added to the microtiter plate. […] One well for each mixture of sucrose solution and inoculum was kept free of Composition A, to serve as a control. The microtiter plates were then stored in a standard 25° C. incubator under aerobic conditions. The optical density (OD) of each sample was measured after 21 days of incubation using a Bio-Tek Synergy™ HT Multi-Mode Microplate Reader (from Labtech International, UK). The wavelength was set to 380 nm for yeast strains and to 500 nm for mould strains. All tests were done in triplicate to ensure statistical relevance of the results obtained.

Test [2] deals with Pichia anomala (DSM 70783). Described as above. The following applies: for Antifungal activity: pH 5, 21 days at 25° C.; for concentration at which active as single ingredient: sucrose solution pH 5, 21 days, tested at 25, 50, 75 ppm.
Description: (§7) The term “effective” when used to describe the capacity of a composition to inhibit growth of a yeast or mould strain is defined as the ability of such composition to inhibit growth of the strain in a growth medium consisting of a 105 g/L sucrose solution with an initial inoculum of 10^2-10^3 cfu/mL of such yeast or mould strain, so that the average optical density of the growth medium, as measured at 380 nm for yeast strains and at 500 nm for mould strains, is maintained below 0.2 after 21 days of culture at 25° C. under aerobic conditions. The growth medium of which the optical density is measured consists of the growth medium as it is at the end of the 21 days growth period.
(§8) For the purposes of the present invention, growth inhibition activity of a given compound against one of the above mentioned strains is measured as follows:
(§9) A 105 g/L solution of sucrose in water is prepared. Preferably, the sucrose solution is at pH 3±0.2 or at pH 5±0.2, in which case the sucrose solution is more preferably autoclaved at 121° C. for 15 minutes and the pH is re-checked to ensure it remains within the required range.
(§10) Test samples are prepared in a microtiter plate comprising 100 μL of one of the sucrose solutions prepared above, together with an initial inoculum of the fungal strain of which growth is intended to be inhibited, so as to achieve a microbial level comprised between 10^2 and 10^3 cfu/mL.
(§11) The composition of which the antifungal activity is intended to be evaluated is then added to the microtiter plate. Dilutions of the tested composition in each test sample are prepared to afford the desired final concentration. The microtiter plates are then stored in a standard 25° C. incubator under aerobic conditions.
(§12) The optical density (OD) of each sample is measured just after addition of the composition (control) and after 21 days of incubation. The OD is measured at 380 nm for yeast strains and at 500 nm for mould strains.
(§13) All tests are done in triplicate to ensure statistical relevance of the results obtained.
(§14) Growth inhibition of a particular strain by an ingredient at a particular concentration is given if the OD measured after 21 days of culture in these conditions is below 0.2.
as §1, §2, §3, §4, §5, §6
(§15) 2-Methylhexanoic acid, geranic acid and sorbic acid were separately tested for their antifungal properties using the method described in Example 1 for evaluation of Composition A, except that dilutions were prepared in the microtiter plate for each mixture of sucrose solution and inoculum to afford final concentrations of 25 ppm, 50 ppm and 75 ppm of the tested ingredient. […]

The subject of test [3] is Pichia membranaefaciens (DSM 70369). Described as above. Conditions: for Antifungal activity: pH 5, 21 days at 25° C.; for concentration at which active as single ingredient: sucrose solution pH 5, 21 days, tested at 25, 50, 75 ppm.
Description: as §7, §8, §9, §10, §11, §12, §13, §14, §1, §2, §3, §4, §5, §6, §15

The mark [4] stands for this setting: 75 ppm, OD 380 nm (Examples 3-4).

Each structure is given as a SMILES string.

Regarding `CCCCC(C)C(=O)O` (centres unmarked) [2-Methylhexanoic acid], the “antifungal activity as single ingredient against tested strains” value (from here on “antifungal activity as single ingredient”) in the test with each of the tested fungi was “inactive”. For the same compound, the Antifungal activity entry is “I (Letter I (for Inactive) is used when the measured OD was of at least 0.2)” in test [1] (25 ppm); “I (Letter I (for Inactive) is used when the measured OD was of at least 0.2)” in test [1] (50 ppm); “I (Letter I (for Inactive) is used when the measured OD was of at least 0.2)” in test [1] (75 ppm); “I (Letter I (for Inactive) is used when the measured OD was of at least 0.2)” in test [2] (25 ppm, OD 380 nm); “I (Letter I (for Inactive) is used when the measured OD was of at least 0.2)” in test [2] (50 ppm, OD 380 nm); “I (Letter I (for Inactive) is used when the measured OD was of at least 0.2)” in test [2] (75 ppm, OD 380 nm). The Antifungal activity entry in test [3] (25 ppm, OD 380 nm) is “I (Letter I (for Inactive) is used when the measured OD was of at least 0.2)”; in test [3] (50 ppm, OD 380 nm) it was “I (Letter I (for Inactive) is used when the measured OD was of at least 0.2)”; in test [3] (75 ppm, OD 380 nm), “I (Letter I (for Inactive) is used when the measured OD was of at least 0.2)”.

Take `CC(C)=CCC/C(C)=C/C(=O)O` [Geranic acid]: in the test on each of the tested fungi, the “antifungal activity as single ingredient” value was “inactive”. Besides, the Antifungal activity entry in test [1] (25 ppm) was “I (Letter I (for Inactive) is used when the measured OD was of at least 0.2)”; in test [1] (50 ppm), “I (Letter I (for Inactive) is used when the measured OD was of at least 0.2)”; in test [1] (75 ppm), “I (Letter I (for Inactive) is used when the measured OD was of at least 0.2)”; in test [2] (25 ppm, OD 380 nm) it was “I (Letter I (for Inactive) is used when the measured OD was of at least 0.2)”; in test [2] (50 ppm, OD 380 nm) it was “I (Letter I (for Inactive) is used when the measured OD was of at least 0.2)”; in test [2] (75 ppm, OD 380 nm), “I (Letter I (for Inactive) is used when the measured OD was of at least 0.2)”. Further, the Antifungal activity result in test [3] (25 ppm, OD 380 nm) is “I (Letter I (for Inactive) is used when the measured OD was of at least 0.2)”; in test [3] (50 ppm, OD 380 nm), “I (Letter I (for Inactive) is used when the measured OD was of at least 0.2)”; in test [3] (75 ppm, OD 380 nm), “I (Letter I (for Inactive) is used when the measured OD was of at least 0.2)”.

In the case of `CCC(=O)O` [Propanoic acid], the “antifungal activity as single ingredient” value with each of the tested fungi was “inactive”. Besides, the Antifungal activity entry in test [2] (25 ppm, OD 380 nm (Example 4)) was “I (Letter I (for Inactive) is used when the measured OD was of at least 0.2)”; in test [2] (50 ppm, OD 380 nm (Example 4)), “I (Letter I (for Inactive) is used when the measured OD was of at least 0.2)”; in test [2] (setting [4]) it was “I (Letter I (for Inactive) is used when the measured OD was of at least 0.2)”; in test [3] (25 ppm, OD 380 nm (Example 4)) it was “I (Letter I (for Inactive) is used when the measured OD was of at least 0.2)”; in test [3] (50 ppm, OD 380 nm (Example 4)), “I (Letter I (for Inactive) is used when the measured OD was of at least 0.2)”; in test [3] (setting [4]) it was “I (Letter I (for Inactive) is used when the measured OD was of at least 0.2)”.

Regarding `C/C=C/C=C/C(=O)O` [Sorbic acid], the Antifungal activity result was “I (Letter I (for Inactive) is used when the measured OD was of at least 0.2)” in test [1] (25 ppm); “I (Letter I (for Inactive) is used when the measured OD was of at least 0.2)” in test [1] (50 ppm); “A (Letter A (for Active) is indicated when the measured OD was below 0.2)” in test [1] (75 ppm); “I (Letter I (for Inactive) is used when the measured OD was of at least 0.2)” in test [2] (25 ppm, OD 380 nm); “A (Letter A (for Active) is indicated when the measured OD was below 0.2)” in test [2] (50 ppm, OD 380 nm); “A (Letter A (for Active) is indicated when the measured OD was below 0.2)” in test [2] (75 ppm, OD 380 nm). Further, the Antifungal activity result in test [3] (25 ppm, OD 380 nm) was “I (Letter I (for Inactive) is used when the measured OD was of at least 0.2)”; in test [3] (50 ppm, OD 380 nm) it was “I (Letter I (for Inactive) is used when the measured OD was of at least 0.2)”; in test [3] (75 ppm, OD 380 nm), “A (Letter A (for Active) is indicated when the measured OD was below 0.2)”. In addition, the “concentration at which active as single ingredient” value was 75 ppm in test [1] (sucrose solution pH 5, 21 days, tested at 25, 50, 75 ppm); 50 ppm in test [2]; 75 ppm in test [3].

Regarding `O=C(O)c1ccccc1` [benzoic acid], the Antifungal activity result in test [2] (25 ppm, OD 380 nm (Example 4)) is “I (Letter I (for Inactive) is used when the measured OD was of at least 0.2)”; in test [2] (50 ppm, OD 380 nm (Example 4)), “A (Letter A (for Active) is indicated when the measured OD was below 0.2)”; in test [2] (setting [4]) it was “A (Letter A (for Active) is indicated when the measured OD was below 0.2)”; in test [3] (25 ppm, OD 380 nm (Example 4)), “I (Letter I (for Inactive) is used when the measured OD was of at least 0.2)”; in test [3] (50 ppm, OD 380 nm (Example 4)), “I (Letter I (for Inactive) is used when the measured OD was of at least 0.2)”; in test [3] (setting [4]) it was “A (Letter A (for Active) is indicated when the measured OD was below 0.2)”. The “concentration at which active as single ingredient” value is 50 ppm in test [2] and 75 ppm in test [3].
